Among the data in PubChem BioAssay AID1259407 (Chemical Carcinogenesis Research Information System (CCRIS), 2018) are mutagenic call values, retold here.

The test system of this data set is CCRIS mutagenicity, Ames/micronucleus/aberration tests. The data set is described as follows: CCRIS mutagenicity studies.
[1] abbreviates: Test System: AMES SALMONELLA TYPHIMURIUM, Strain/Indicator: TA98, Metabolic Activation: NONE, Method: PREINCUBATION
The mark [2] stands for this setting: Test System: AMES SALMONELLA TYPHIMURIUM, Strain/Indicator: TA100, Metabolic Activation: NONE, Method: PREINCUBATION
The mark [3] stands for this setting: Test System: AMES SALMONELLA TYPHIMURIUM, Strain/Indicator: TA1535, Metabolic Activation: NONE, Method: PREINCUBATION
The mark [4] stands for this setting: Test System: AMES SALMONELLA TYPHIMURIUM, Strain/Indicator: TA1537, Metabolic Activation: NONE, Method: PREINCUBATION
The mark [5] stands for this setting: Test System: AMES SALMONELLA TYPHIMURIUM, Strain/Indicator: TA98, Metabolic Activation: NONE, Method: STANDARD PLATE.
[6] abbreviates: Test System: AMES SALMONELLA TYPHIMURIUM, Strain/Indicator: TA100, Metabolic Activation: NONE, Method: STANDARD PLATE.

Active and inactive are the calls of the source. How the calls were made is not given here.

In the case of `COc1c2ccoc2nc2c(OC)c(OCC3OC3(C)C)ccc12` (stereo unspecified), the mutagenic call (Test System: AMES SALMONELLA TYPHIMURIUM, Strain/Indicator: TA98, Metabolic Activation: RAT, LIVER, S-9, PHENOBARBITAL, Method: STANDARD PLATE) was “inactive; negative” and the mutagenic call (Test System: AMES SALMONELLA TYPHIMURIUM, Strain/Indicator: TA100, Metabolic Activation: RAT, LIVER, S-9, PHENOBARBITAL, Method: STANDARD PLATE) was “inactive; negative”.
As to `CNCc1ccc(CSCCNC(=NCC(O)c2ccc(O)cc2)NS(C)(=O)=O)o1` (stereo unspecified), the mutagenic call reads like this: under setting [1], “inactive; negative”; (Test System: AMES SALMONELLA TYPHIMURIUM, Strain/Indicator: TA98, Metabolic Activation: RAT LIVER S-9, PHENOBARBITAL AND 5,6-BENZOFLAVONE, Method: PREINCUBATION) “inactive; negative”; under setting [2], “inactive; negative”; (Test System: AMES SALMONELLA TYPHIMURIUM, Strain/Indicator: TA100, Metabolic Activation: RAT LIVER S-9, PHENOBARBITAL AND 5,6-BENZOFLAVONE, Method: PREINCUBATION) “inactive; negative”; under setting [3], “inactive; negative”; (Test System: AMES SALMONELLA TYPHIMURIUM, Strain/Indicator: TA1535, Metabolic Activation: RAT LIVER S-9, PHENOBARBITAL AND 5,6-BENZOFLAVONE, Method: PREINCUBATION) “inactive; negative”. The mutagenic call is “inactive; negative” under setting [4]; “inactive; negative” (Test System: AMES SALMONELLA TYPHIMURIUM, Strain/Indicator: TA1537, Metabolic Activation: RAT LIVER S-9, PHENOBARBITAL AND 5,6-BENZOFLAVONE, Method: PREINCUBATION); “inactive; negative” (Test System: E.COLI, Strain/Indicator: WP2 UVRA, Metabolic Activation: NONE, Method: PREINCUBATION); “inactive; negative” (Test System: E.COLI, Strain/Indicator: WP2 UVRA, Metabolic Activation: RAT LIVER S-9, PHENOBARBITAL AND 5,6-BENZOFLAVONE, Method: PREINCUBATION).
Regarding `O=[N+]([O-])c1ccc(-c2nc3sccn3c2[N+](=O)[O-])cc1`, the mutagenic call runs as follows: under setting [5], “active; positive”; under setting [6], “active; positive”; (Test System: AMES SALMONELLA TYPHIMURIUM, Strain/Indicator: TA1535, Metabolic Activation: NONE, Method: STANDARD PLATE) “inactive; negative”; (Test System: AMES SALMONELLA TYPHIMURIUM, Strain/Indicator: TA1537, Metabolic Activation: NONE, Method: STANDARD PLATE) “active; positive”; (Test System: AMES SALMONELLA TYPHIMURIUM, Strain/Indicator: TA1538, Metabolic Activation: NONE, Method: STANDARD PLATE) “active; positive”.
In the case of `C[C@@H]1[C@H](O)[C@@H](C)/C=C/C=C/C=C/C=C/C=C/C=C/C=C/[C@H](O[C@@H]2O[C@H](C)[C@@H](O)[C@H](N)[C@@H]2O)C[C@@H]2O[C@](O)(C[C@@H](O)C[C@@H](O)[C@H](O)CC[C@@H](O)C[C@@H](O)CC(=O)O[C@H]1C)C[C@H](O)[C@H]2C(=O)O`, the mutagenic call by setting is: (End Point: IN VITRO CHROMOSOMAL ABERRATIONS, Test System: CHO-LB CELLS, Metabolic Activation: NONE) “inactive; negative”; (End Point: IN VITRO CHROMOSOMAL ABERRATIONS, Test System: CHO-LB CELLS, Metabolic Activation: RAT, LIVER, S-9, AROCLOR 1254) “inactive; negative”; (Test System: AMES SALMONELLA TYPHIMURIUM, Strain/Indicator: TA97, Metabolic Activation: HAMSTER, LIVER, S-9, AROCLOR 1254 (10 OR 30%), Method: PREINCUBATION) “inactive; negative”; (Test System: AMES SALMONELLA TYPHIMURIUM, Strain/Indicator: TA97, Metabolic Activation: NONE, Method: PREINCUBATION) “inactive; negative”; (Test System: AMES SALMONELLA TYPHIMURIUM, Strain/Indicator: TA97, Metabolic Activation: RAT, LIVER, S-9, AROCLOR 1254 (10 OR 30%), Method: PREINCUBATION) “inactive; negative”; (Test System: AMES SALMONELLA TYPHIMURIUM, Strain/Indicator: TA98, Metabolic Activation: HAMSTER, LIVER, S-9, AROCLOR 1254 (10 OR 30%), Method: PREINCUBATION) “inactive; negative”. Further, the mutagenic call is “inactive; negative” under setting [1]; “inactive; negative” (Test System: AMES SALMONELLA TYPHIMURIUM, Strain/Indicator: TA98, Metabolic Activation: RAT, LIVER, S-9, AROCLOR 1254 (10 OR 30%), Method: PREINCUBATION); “inactive; negative” (Test System: AMES SALMONELLA TYPHIMURIUM, Strain/Indicator: TA100, Metabolic Activation: HAMSTER, LIVER, S-9, AROCLOR 1254 (10 OR 30%), Method: PREINCUBATION); “inactive; negative” under setting [2]; “inactive; negative” (Test System: AMES SALMONELLA TYPHIMURIUM, Strain/Indicator: TA100, Metabolic Activation: RAT, LIVER, S-9, AROCLOR 1254 (10 OR 30%), Method: PREINCUBATION); “inactive; negative” (Test System: AMES SALMONELLA TYPHIMURIUM, Strain/Indicator: TA1535, Metabolic Activation: HAMSTER, LIVER, S-9, AROCLOR 1254 (10 OR 30%), Method: PREINCUBATION). In addition, the mutagenic call under setting [3] was “inactive; negative”; the mutagenic call (Test System: AMES SALMONELLA TYPHIMURIUM, Strain/Indicator: TA1535, Metabolic Activation: RAT, LIVER, S-9, AROCLOR 1254 (10 OR 30%), Method: PREINCUBATION) was “inactive; negative”; the mutagenic call (Test System: AMES SALMONELLA TYPHIMURIUM, Strain/Indicator: TA1537, Metabolic Activation: HAMSTER, LIVER, S-9, AROCLOR 1254 (30%), Method: PREINCUBATION) was “inactive; negative”; the mutagenic call under setting [4] was “inactive; negative”; the mutagenic call (Test System: AMES SALMONELLA TYPHIMURIUM, Strain/Indicator: TA1537, Metabolic Activation: RAT, LIVER, S-9, AROCLOR 1254 (30%), Method: PREINCUBATION) was “inactive; negative”.
`Nc1ccc(CC(=O)O)cc1`: the mutagenic call under setting [5] is “inactive; negative” and the mutagenic call (Test System: AMES SALMONELLA TYPHIMURIUM, Strain/Indicator: TA98, Metabolic Activation: RAT, LIVER, S-9, Method: STANDARD PLATE) is “active; positive”.
For the molecule `Oc1ccc(/C=C/c2cc(O)cc(O)c2)cc1`, the mutagenic call by setting is: (End Point: CHROMOSOMAL ABERRATIONS, Test System: CHINESE HAMSTER LUNG CELLS, Metabolic Activation: NONE) “active; positive (structural and ploidy changes)”; (Test System: Ames Salmonella typhimurium, Strain/Indicator: TA102, Metabolic Activation: None, Method: Preincubation) “inactive; negative”; (Test System: Ames Salmonella typhimurium, Strain/Indicator: TA102, Metabolic Activation: Rat, Liver, S-9, Aroclor 1254 in 0.154 M KCl, Method: Preincubation) “inactive; negative”.
For `O=C(CBr)Nc1ccccc1`, the mutagenic call is, setting by setting: (Test System: AMES SALMONELLA TYPHIMURIUM, Strain/Indicator: TA100, Metabolic Activation: MOUSE, LIVER, S-9, AROCLOR 1254, Method: STANDARD PLATE) “inactive; negative”; under setting [6], “inactive; negative”.
